# Ends that are not written are not given here. * marks the point of attachment. Isobutyryl(2-OH) = CC(C)(O)C(=O)*
# B1: 2-hydroxyisobutyrylated peptide [YGDEQVK(hib)QWR] (peptide)
# peptide: YGDEQVK(Isobutyryl(2-OH))QWR
# Tests used:
# P. mirabilis = assay: Growth curve of overexpressing P. mirabilis; format: cell-based; conditions: ENO WT or mutant-overexpressing P. mirabilis, OD600, 37°C
# R58M mutant CobB = assay: LC-MS detection of deacylation of gpmA peptides by R58M mutant CobB; format: biochemical, P. mirabilis; conditions: 50 μM peptide, 1 μM CobB, 1 mM NAD^+, pH 8.5, 37°C, 2 hours
# CobB = assay: LC-MS detection of deacylation of gpmA peptides by CobB; format: biochemical, P. mirabilis
# Y55F CobB = assay: De-2-hydroxyisobutyrylation kinetics by MALDI-TOF MS, Y55F CobB; format: biochemical, P. mirabilis
# R58M CobB = assay: ITC affinity of Khib peptide with R58M CobB; format: binding, P. mirabilis; conditions: 37°C
# WT CobB = assay: De-2-hydroxyisobutyrylation kinetics by MALDI-TOF MS, WT CobB; format: biochemical, P. mirabilis
# recombinant ENO = format: biochemical, P. mirabilis; conditions: NAM 10 mM with CobB and NAD^+, 25°C, 10 hours, Western blotting
# [1] = molecular target: recombinant CobB (WT) (P. mirabilis); assay: ITC
# Y55F CobB (P. mirabilis) = assay: ITC
# R58M CobB (P. mirabilis) = assay: ITC
# [2] = Km for peptide, MALDI-TOF MS, 1 mM NAD^+, pH 8.5, 37°C, 2 min
# [3] = MALDI-TOF MS, 1 mM NAD^+, pH 8.5, 37°C, 2 min, 2-285 μM peptide
molecule,measurement,setting,value
"ENO: enolase of P. mirabilis, His-tagged fusion protein",growth rate,P. mirabilis,faster than that of mutated ENO-overexpressing P. mirabilis
ENO-K326Q/K343T,growth rate,P. mirabilis,the lowest
YGDEQVK(hib)QWR,deacylated peptide after treatment with R58M mutant,R58M mutant CobB,not detectable
same,hydrolysis by CobB in the presence of NAD^+,"CobB; 50 μM peptide, 1 μM CobB, 1 mM NAD^+, pH 8.5, 37°C, 2 hours",efficiently catalyzed the hydrolysis
same,de-2-hydroxyisobutyrylated peptide without NAD^+,"CobB; 50 μM peptide, 1 μM CobB, without NAD^+",not detected
same,kcat/Km,Y55F CobB,8.3e+09 M⁻¹ s⁻¹
same,Km,Y55F CobB; [2],12.2 ± 2 µM
same,kcat,Y55F CobB; [3],0.101 ± 0.006 s⁻¹
same,change of affinity of R58M CobB compared with WT CobB,R58M CobB,significantly decreased eight times
same,kcat/Km,WT CobB,1.7e+10 M⁻¹ s⁻¹
same,Km,WT CobB; [2],13.3 ± 1.6 µM
same,kcat,WT CobB; [3],0.225 ± 0.011 s⁻¹
"NC(=O)c1cccnc1 [NAM, nicotinamide]",inhibitory effect on removal of Khib relative to other acyl groups,CobB; NAM 10 mM,greatest inhibitory effect on Khib
same,inhibitory effect on removal of Ksucc relative to other acyl groups,CobB; NAM 10 mM,least effect on Ksucc
same,inhibition of de-2-hydroxyisobutyrylation reaction,"CobB; NAM 10 mM, 50 μM peptide, 1 μM CobB",inhibited efficiently
same,change of modifications of ENO with NAD^+ and NAM,recombinant ENO,no significant change in the modifications of ENO
B1,Kd,[1],2030 nM
same,Kd,Y55F CobB (P. mirabilis),2340 nM
same,Kd,R58M CobB (P. mirabilis),15900 nM

# Reference: publication PMC6636992 (Science Advances, 2019)
